Measurements: US10954269B2, “Anti-inflammatory tripeptides” (Dr. August Wolff Gmbh & Co. KG Arzneimittel, priority 2013, dated 2021)
[ ]: non-standard residue; d: D form. Aib = CC(C)(N)C(=O)O

System: primary murine T-cells
Experiment: Cytokine secretion on protein level in activated primary murine T-cells (13-plex FACS / Luminex, supernatant)
Assay type: cell-based, C57BL/6 mice
Details: for IFN-γ* cytokine concentration / IL-2* cytokine concentration: 1:10 dilution of the supernatants
Summary of the method: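 T-cells from secondary lymphatic organs of naïve C57BL/6 mice, stimulated with PMA/Ionomycin or IFN-γ; supernatant cytokines measured by 13-plex FACS 48 h and 72 h after stimulation. In another run, PMA/Ionomycin-stimulated cells received compounds at 10^−7, 10^−9 and 10^−11 M, with IFN-γ, IL-17 and IL-10 measured by Luminex.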

[1] = primary murine T-cells stimulated with IFN-γ, 10^−9M
[2] = primary murine T-cells stimulated with IFN-γ, substance 10^−9M
[3] = primary murine T-cells stimulated with PBS, 10^−9M
[4] = primary murine T-cells stimulated with PBS, substance 10^−9M
[5] = primary murine T-cells stimulated with PMA/Ionomycin, 10^−9M
[6] = primary murine T-cells stimulated with PMA/Ionomycin, substance 10^−9M

H-Lys-[dP]-Thr-OH [K(D)PT, reference compound]
IL-1 cytokine concentration [1]: 26.6 pg/mL
IL-2 cytokine concentration [1]: 0 pg/mL
IL-4 cytokine concentration [1]: 0 pg/mL
IL-5 cytokine concentration [1]: 0 pg/mL
IL-6 cytokine concentration [1]: 0 pg/mL
IL-10 cytokine concentration [1]: 0 pg/mL
IL-13 cytokine concentration [1]: 0 pg/mL
IL-17 cytokine concentration [1]: 0 pg/mL
IL-21 cytokine concentration [1]: 0 pg/mL
IL-22 cytokine concentration [1]: 0 pg/mL
IL-27 cytokine concentration [1]: 209.12 pg/mL
TNF-α cytokine concentration [1]: 0 pg/mL
IL-1 cytokine concentration [2]: 93.77 pg/mL
IL-2 cytokine concentration [2]: 98.22 pg/mL
IL-4 cytokine concentration [2]: 85.32 pg/mL
IL-5 cytokine concentration [2]: 271.81 pg/mL
IL-6 cytokine concentration [2]: 144.97 pg/mL
IL-10 cytokine concentration [2]: 1061 pg/mL
IL-13 cytokine concentration [2]: 0 pg/mL
IL-17 cytokine concentration [2]: 88.84 pg/mL
IL-21 cytokine concentration [2]: 0 pg/mL
IL-22 cytokine concentration [2]: 48.13 pg/mL
IL-27 cytokine concentration [2]: 0 pg/mL
TNF-α cytokine concentration [2]: 34.84 pg/mL
IFN-γ cytokine concentration [3]: 0 pg/mL
IL-1 cytokine concentration [3]: 0 pg/mL
IL-2 cytokine concentration [3]: 0 pg/mL
IL-4 cytokine concentration [3]: 0 pg/mL
IL-5 cytokine concentration [3]: 0 pg/mL
IL-6 cytokine concentration [3]: 27.81 pg/mL
IL-10 cytokine concentration [3]: 64.53 pg/mL
IL-13 cytokine concentration [3]: 0 pg/mL
IL-17 cytokine concentration [3]: 16.26 pg/mL
IL-21 cytokine concentration [3]: 0 pg/mL
IL-22 cytokine concentration [3]: 0 pg/mL
IL-27 cytokine concentration [3]: 25.93 pg/mL
TNF-α cytokine concentration [3]: 0 pg/mL
IFN-γ cytokine concentration [4]: 0 pg/mL
IL-1 cytokine concentration [4]: 60.41 pg/mL
IL-2 cytokine concentration [4]: 124.13 pg/mL
IL-4 cytokine concentration [4]: 71.69 pg/mL
IL-5 cytokine concentration [4]: 373.93 pg/mL
IL-6 cytokine concentration [4]: 124 pg/mL
IL-10 cytokine concentration [4]: 1039.39 pg/mL
IL-13 cytokine concentration [4]: 0 pg/mL
IL-17 cytokine concentration [4]: 0 pg/mL
IL-21 cytokine concentration [4]: 0 pg/mL
IL-22 cytokine concentration [4]: 78.32 pg/mL
IL-27 cytokine concentration [4]: 87.48 pg/mL
TNF-α cytokine concentration [4]: 77.74 pg/mL
IL-1 cytokine concentration [5]: 30.27 pg/mL
IL-4 cytokine concentration [5]: 71.79 pg/mL
IL-5 cytokine concentration [5]: 280.87 pg/mL
IL-6 cytokine concentration [5]: 140.97 pg/mL
IL-10 cytokine concentration [5]: 188.56 pg/mL
IL-13 cytokine concentration [5]: 4314.15 pg/mL
IL-17 cytokine concentration [5]: 423.67 pg/mL
IL-21 cytokine concentration [5]: 0 pg/mL
IL-22 cytokine concentration [5]: 333.4 pg/mL
IL-27 cytokine concentration [5]: 99.7 pg/mL
TNF-α cytokine concentration [5]: 515.54 pg/mL
IFN-γ* cytokine concentration [5]: 712.81 pg/mL
IL-2* cytokine concentration [5]: 1288.92 pg/mL
IFN-γ cytokine concentration [6]: 2117.29 pg/mL
IL-1 cytokine concentration [6]: 175.59 pg/mL
IL-2 cytokine concentration [6]: 152.69 pg/mL
IL-4 cytokine concentration [6]: 72.07 pg/mL
IL-5 cytokine concentration [6]: 238.08 pg/mL
IL-6 cytokine concentration [6]: 201.87 pg/mL
IL-10 cytokine concentration [6]: 1133.29 pg/mL
IL-13 cytokine concentration [6]: 0 pg/mL
IL-17 cytokine concentration [6]: 70.93 pg/mL
IL-21 cytokine concentration [6]: 0 pg/mL
IL-22 cytokine concentration [6]: 90.3 pg/mL
IL-27 cytokine concentration [6]: 126.71 pg/mL
TNF-α cytokine concentration [6]: 49.63 pg/mL

H-Phe-Pro-[Aib]-OH [Example 13]
IL-1 cytokine concentration [2]: 82.68 pg/mL
IL-2 cytokine concentration [2]: 237.05 pg/mL
IL-4 cytokine concentration [2]: 0 pg/mL
IL-5 cytokine concentration [2]: 342.32 pg/mL
IL-6 cytokine concentration [2]: 220.06 pg/mL
IL-10 cytokine concentration [2]: 968.94 pg/mL
IL-13 cytokine concentration [2]: 0 pg/mL
IL-17 cytokine concentration [2]: 26.88 pg/mL
IL-21 cytokine concentration [2]: 0 pg/mL
IL-22 cytokine concentration [2]: 334.1 pg/mL
IL-27 cytokine concentration [2]: 151.6 pg/mL
TNF-α cytokine concentration [2]: 52.48 pg/mL
IFN-γ cytokine concentration [4]: 5058.59 pg/mL
IL-1 cytokine concentration [4]: 64.4 pg/mL
IL-2 cytokine concentration [4]: 173.84 pg/mL
IL-4 cytokine concentration [4]: 25.55 pg/mL
IL-5 cytokine concentration [4]: 401.21 pg/mL
IL-6 cytokine concentration [4]: 168.6 pg/mL
IL-10 cytokine concentration [4]: 829.52 pg/mL
IL-13 cytokine concentration [4]: 0 pg/mL
IL-17 cytokine concentration [4]: 0 pg/mL
IL-21 cytokine concentration [4]: 0 pg/mL
IL-22 cytokine concentration [4]: 0 pg/mL
IL-27 cytokine concentration [4]: 302.6 pg/mL
TNF-α cytokine concentration [4]: 62.22 pg/mL
IFN-γ cytokine concentration [6]: 8109.91 pg/mL
IL-1 cytokine concentration [6]: 329.99 pg/mL
IL-2 cytokine concentration [6]: 260.49 pg/mL
IL-4 cytokine concentration [6]: 135.41 pg/mL
IL-5 cytokine concentration [6]: 452.71 pg/mL
IL-6 cytokine concentration [6]: 404.54 pg/mL
IL-10 cytokine concentration [6]: 1267.4 pg/mL
IL-13 cytokine concentration [6]: 0 pg/mL
IL-17 cytokine concentration [6]: 0 pg/mL
IL-21 cytokine concentration [6]: 432.64 pg/mL
IL-22 cytokine concentration [6]: 111.64 pg/mL
IL-27 cytokine concentration [6]: 387.94 pg/mL
TNF-α cytokine concentration [6]: 69.4 pg/mL

alpha-melanocyte-stimulating hormone [α-MSH, reference compound]
IL-1 cytokine concentration [1]: 14.89 pg/mL
IL-2 cytokine concentration [1]: 0 pg/mL
IL-4 cytokine concentration [1]: 0 pg/mL
IL-5 cytokine concentration [1]: 0 pg/mL
IL-6 cytokine concentration [1]: 0 pg/mL
IL-10 cytokine concentration [1]: 0 pg/mL
IL-13 cytokine concentration [1]: 0 pg/mL
IL-17 cytokine concentration [1]: 0 pg/mL
IL-21 cytokine concentration [1]: 0 pg/mL
IL-22 cytokine concentration [1]: 0 pg/mL
IL-27 cytokine concentration [1]: 0 pg/mL
TNF-α cytokine concentration [1]: 0 pg/mL
IL-1 cytokine concentration [2]: 88.22 pg/mL
IL-2 cytokine concentration [2]: 96.1 pg/mL
IL-4 cytokine concentration [2]: 20.56 pg/mL
IL-5 cytokine concentration [2]: 220.39 pg/mL
IL-6 cytokine concentration [2]: 133.9 pg/mL
IL-10 cytokine concentration [2]: 1117.07 pg/mL
IL-13 cytokine concentration [2]: 0 pg/mL
IL-17 cytokine concentration [2]: 55.11 pg/mL
IL-21 cytokine concentration [2]: 0 pg/mL
IL-22 cytokine concentration [2]: 50.6 pg/mL
IL-27 cytokine concentration [2]: 104.04 pg/mL
TNF-α cytokine concentration [2]: 36.8 pg/mL
IFN-γ cytokine concentration [3]: 0 pg/mL
IL-1 cytokine concentration [3]: 0 pg/mL
IL-2 cytokine concentration [3]: 0 pg/mL
IL-4 cytokine concentration [3]: 0 pg/mL
IL-5 cytokine concentration [3]: 0 pg/mL
IL-6 cytokine concentration [3]: 16.44 pg/mL
IL-10 cytokine concentration [3]: 55.47 pg/mL
IL-13 cytokine concentration [3]: 0 pg/mL
IL-17 cytokine concentration [3]: 0 pg/mL
IL-21 cytokine concentration [3]: 0 pg/mL
IL-22 cytokine concentration [3]: 0 pg/mL
IL-27 cytokine concentration [3]: 0 pg/mL
TNF-α cytokine concentration [3]: 0 pg/mL
IFN-γ cytokine concentration [4]: 0 pg/mL
IL-1 cytokine concentration [4]: 58.5 pg/mL
IL-2 cytokine concentration [4]: 105.75 pg/mL
IL-4 cytokine concentration [4]: 62.93 pg/mL
IL-5 cytokine concentration [4]: 281.14 pg/mL
IL-6 cytokine concentration [4]: 96.88 pg/mL
IL-10 cytokine concentration [4]: 1157.87 pg/mL
IL-13 cytokine concentration [4]: 0 pg/mL
IL-17 cytokine concentration [4]: 0 pg/mL
IL-21 cytokine concentration [4]: 0 pg/mL
IL-22 cytokine concentration [4]: 72.14 pg/mL
IL-27 cytokine concentration [4]: 77.41 pg/mL
TNF-α cytokine concentration [4]: 106.1 pg/mL
IL-1 cytokine concentration [5]: 28.92 pg/mL
IL-4 cytokine concentration [5]: 0 pg/mL
IL-5 cytokine concentration [5]: 262.76 pg/mL
IL-6 cytokine concentration [5]: 114.47 pg/mL
IL-10 cytokine concentration [5]: 276.08 pg/mL
IL-13 cytokine concentration [5]: 3966.69 pg/mL
IL-17 cytokine concentration [5]: 311.07 pg/mL
IL-21 cytokine concentration [5]: 0 pg/mL
IL-22 cytokine concentration [5]: 356.41 pg/mL
IL-27 cytokine concentration [5]: 0 pg/mL
TNF-α cytokine concentration [5]: 535.51 pg/mL
IFN-γ* cytokine concentration [5]: 0 pg/mL
IL-2* cytokine concentration [5]: 849.44 pg/mL
IFN-γ cytokine concentration [6]: 1458.12 pg/mL
IL-1 cytokine concentration [6]: 217.32 pg/mL
IL-2 cytokine concentration [6]: 163.19 pg/mL
IL-4 cytokine concentration [6]: 91.65 pg/mL
IL-5 cytokine concentration [6]: 215.44 pg/mL
IL-6 cytokine concentration [6]: 174.22 pg/mL
IL-10 cytokine concentration [6]: 1250.21 pg/mL
IL-13 cytokine concentration [6]: 0 pg/mL
IL-17 cytokine concentration [6]: 29.47 pg/mL
IL-21 cytokine concentration [6]: 0 pg/mL
IL-22 cytokine concentration [6]: 143.37 pg/mL
IL-27 cytokine concentration [6]: 104.52 pg/mL
TNF-α cytokine concentration [6]: 77.76 pg/mL
